Results taken from patent US8933230B2, “Phosphorus-containing group-substituted quinoline, its preparation process, medical composition containing the compounds and application” (priority 2011, dated 2015).

Assays:
Assay in all cases: KinomeScan kinase panel
Type in all cases: binding
[1] = target: T1, ABL1(E255K)-phosphorylated (Homo sapiens, UniProt P00519, E255K)
T1 construct: purchased DiscoveRx Corporation (KinomeScan)
Outline: (§1)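 KinomeScan, 442 kinases incl. mutants; cpd 1000 nM; single-concentration inhibition.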

[2] = target: T2, ABL2 (Homo sapiens, UniProt P42684)
T2 construct: purchased DiscoveRx Corporation (KinomeScan)
Outline: as §1

[3] = target: T3, ACVRL1 (Homo sapiens, UniProt P37023)
T3 construct: purchased DiscoveRx Corporation (KinomeScan)
Outline: as §1

[4] = target: T4, ANKK1 (Homo sapiens, UniProt Q8NFD2)
T4 construct: purchased DiscoveRx Corporation (KinomeScan)
Outline: as §1

[5] = target: T5, BRSK2 (Homo sapiens, UniProt Q8IWQ3)
T5 construct: purchased DiscoveRx Corporation (KinomeScan)
Outline: as §1

[6] = target: T6, CAMK1 (Homo sapiens, UniProt Q14012)
T6 construct: purchased DiscoveRx Corporation (KinomeScan)
Outline: as §1

[7] = target: T7, CDKL1 (Homo sapiens, UniProt Q00532)
T7 construct: purchased DiscoveRx Corporation (KinomeScan)
T7 sequence (Q00532 whole entry): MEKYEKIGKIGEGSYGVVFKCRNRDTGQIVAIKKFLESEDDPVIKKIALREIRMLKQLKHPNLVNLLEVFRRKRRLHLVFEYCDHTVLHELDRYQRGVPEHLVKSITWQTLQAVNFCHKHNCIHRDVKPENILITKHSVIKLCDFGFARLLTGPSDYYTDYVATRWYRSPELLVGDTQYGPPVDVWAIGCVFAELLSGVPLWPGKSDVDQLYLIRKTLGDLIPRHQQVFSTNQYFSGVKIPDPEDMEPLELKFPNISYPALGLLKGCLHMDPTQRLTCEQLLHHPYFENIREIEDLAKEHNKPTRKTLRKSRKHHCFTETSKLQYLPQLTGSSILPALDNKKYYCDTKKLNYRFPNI
Outline: as §1

[8] = target: T8, CLK3 (Homo sapiens, UniProt P49761)
T8 construct: purchased DiscoveRx Corporation (KinomeScan)
Outline: as §1

[9] = target: T9, DCAMKL3 (Homo sapiens, UniProt Q9C098)
T9 construct: purchased DiscoveRx Corporation (KinomeScan)
Outline: as §1

[10] = target: T10, EGFR(G719S) (Homo sapiens, UniProt P00533, G719S)
T10 construct: purchased DiscoveRx Corporation (KinomeScan)
Outline: as §1

[11] = target: T11, EGFR(L858R) (Homo sapiens, UniProt P00533, L858R)
T11 construct: purchased DiscoveRx Corporation (KinomeScan)
Outline: as §1

[12] = target: T12, ERK3 (Homo sapiens, UniProt Q16659)
T12 construct: purchased DiscoveRx Corporation (KinomeScan)
Outline: as §1

[13] = target: T13, HIPK2 (Homo sapiens, UniProt Q9H2X6)
T13 construct: purchased DiscoveRx Corporation (KinomeScan)
Outline: as §1

[14] = target: T14, IRAK1 (Homo sapiens, UniProt P51617)
T14 construct: purchased DiscoveRx Corporation (KinomeScan)
T14 sequence (P51617 whole entry): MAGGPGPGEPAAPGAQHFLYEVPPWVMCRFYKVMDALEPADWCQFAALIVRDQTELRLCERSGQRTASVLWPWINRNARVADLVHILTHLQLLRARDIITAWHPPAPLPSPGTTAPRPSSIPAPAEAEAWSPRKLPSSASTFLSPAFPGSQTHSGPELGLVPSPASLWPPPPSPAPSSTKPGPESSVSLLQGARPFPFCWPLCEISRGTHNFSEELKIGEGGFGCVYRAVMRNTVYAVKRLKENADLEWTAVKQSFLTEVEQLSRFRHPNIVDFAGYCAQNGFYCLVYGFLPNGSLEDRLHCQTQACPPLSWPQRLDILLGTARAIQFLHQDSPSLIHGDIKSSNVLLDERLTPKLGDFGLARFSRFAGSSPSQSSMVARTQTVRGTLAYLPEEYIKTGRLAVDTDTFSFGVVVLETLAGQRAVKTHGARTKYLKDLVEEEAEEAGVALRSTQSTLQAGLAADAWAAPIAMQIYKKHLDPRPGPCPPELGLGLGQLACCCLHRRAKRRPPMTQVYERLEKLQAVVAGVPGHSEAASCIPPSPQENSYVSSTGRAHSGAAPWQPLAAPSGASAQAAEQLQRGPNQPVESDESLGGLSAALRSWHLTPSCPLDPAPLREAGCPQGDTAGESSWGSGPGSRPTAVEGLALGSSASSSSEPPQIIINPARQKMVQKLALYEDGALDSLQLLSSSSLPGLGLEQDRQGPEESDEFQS
Outline: as §1

[15] = target: T15, JAK3(JH1domain-catalytic) (Homo sapiens, UniProt P52333)
T15 construct: JAK3(JH1domain-catalytic); purchased DiscoveRx Corporation (KinomeScan)
T15 sequence (P52333 822-1111 limits assumed): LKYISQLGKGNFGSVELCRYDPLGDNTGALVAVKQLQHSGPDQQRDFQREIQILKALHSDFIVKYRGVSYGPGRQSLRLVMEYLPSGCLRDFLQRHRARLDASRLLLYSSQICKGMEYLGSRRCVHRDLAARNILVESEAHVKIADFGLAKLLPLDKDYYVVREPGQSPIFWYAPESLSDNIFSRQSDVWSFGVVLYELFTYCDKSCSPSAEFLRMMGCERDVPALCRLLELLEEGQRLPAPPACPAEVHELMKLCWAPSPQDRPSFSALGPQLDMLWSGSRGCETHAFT
Outline: as §1

[16] = target: T16, KIT(V559D, T670I) (Homo sapiens, UniProt P10721, T670I/V559D)
T16 construct: purchased DiscoveRx Corporation (KinomeScan)
Outline: as §1

[17] = target: T17, LIMK1 (Homo sapiens, UniProt P53667)
T17 construct: purchased DiscoveRx Corporation (KinomeScan)
T17 sequence (P53667 whole entry): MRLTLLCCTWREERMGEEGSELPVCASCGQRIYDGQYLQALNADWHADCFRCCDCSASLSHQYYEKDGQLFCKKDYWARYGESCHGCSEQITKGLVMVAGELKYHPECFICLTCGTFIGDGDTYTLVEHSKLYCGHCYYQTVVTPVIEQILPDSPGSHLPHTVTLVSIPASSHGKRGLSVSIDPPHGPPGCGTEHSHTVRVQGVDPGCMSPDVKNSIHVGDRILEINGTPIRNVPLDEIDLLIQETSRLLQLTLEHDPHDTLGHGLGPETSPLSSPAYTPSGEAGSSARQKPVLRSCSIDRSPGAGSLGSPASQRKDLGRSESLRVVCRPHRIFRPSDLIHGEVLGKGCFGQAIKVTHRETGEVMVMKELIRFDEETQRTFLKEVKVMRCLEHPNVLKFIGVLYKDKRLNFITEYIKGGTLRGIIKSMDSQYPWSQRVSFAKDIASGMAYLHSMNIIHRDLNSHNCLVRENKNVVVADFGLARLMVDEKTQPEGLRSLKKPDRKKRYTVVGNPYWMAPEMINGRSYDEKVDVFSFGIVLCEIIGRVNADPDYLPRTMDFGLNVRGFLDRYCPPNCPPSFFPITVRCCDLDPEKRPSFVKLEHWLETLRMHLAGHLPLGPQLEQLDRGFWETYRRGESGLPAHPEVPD
Outline: as §1

[18] = target: T18, LRRK2 (Homo sapiens, UniProt Q5S007)
T18 construct: purchased DiscoveRx Corporation (KinomeScan)
Outline: as §1

[19] = target: T19, MAK (Homo sapiens, UniProt P20794)
T19 construct: purchased DiscoveRx Corporation (KinomeScan)
Outline: as §1

[20] = target: T20, MAST1 (Homo sapiens, UniProt Q9Y2H9)
T20 construct: purchased DiscoveRx Corporation (KinomeScan)
Outline: as §1

[21] = target: T21, MEK4 (Homo sapiens, UniProt P45985)
T21 construct: purchased DiscoveRx Corporation (KinomeScan)
Outline: as §1

[22] = target: T22, MET(Y1235D) (Homo sapiens, UniProt P08581, Y1235D)
T22 construct: purchased DiscoveRx Corporation (KinomeScan)
Outline: as §1

[23] = target: T23, MKNK1 (Homo sapiens, UniProt Q9BUB5)
T23 construct: purchased DiscoveRx Corporation (KinomeScan)
Outline: as §1

[24] = target: T24, NIM1 (Homo sapiens, UniProt Q8IY84)
T24 construct: purchased DiscoveRx Corporation (KinomeScan panel)
Outline: as §1

[25] = target: T25, PIK3C2B (Homo sapiens, UniProt O00750)
T25 construct: purchased DiscoveRx Corporation (KinomeScan)
T25 sequence (O00750 whole entry): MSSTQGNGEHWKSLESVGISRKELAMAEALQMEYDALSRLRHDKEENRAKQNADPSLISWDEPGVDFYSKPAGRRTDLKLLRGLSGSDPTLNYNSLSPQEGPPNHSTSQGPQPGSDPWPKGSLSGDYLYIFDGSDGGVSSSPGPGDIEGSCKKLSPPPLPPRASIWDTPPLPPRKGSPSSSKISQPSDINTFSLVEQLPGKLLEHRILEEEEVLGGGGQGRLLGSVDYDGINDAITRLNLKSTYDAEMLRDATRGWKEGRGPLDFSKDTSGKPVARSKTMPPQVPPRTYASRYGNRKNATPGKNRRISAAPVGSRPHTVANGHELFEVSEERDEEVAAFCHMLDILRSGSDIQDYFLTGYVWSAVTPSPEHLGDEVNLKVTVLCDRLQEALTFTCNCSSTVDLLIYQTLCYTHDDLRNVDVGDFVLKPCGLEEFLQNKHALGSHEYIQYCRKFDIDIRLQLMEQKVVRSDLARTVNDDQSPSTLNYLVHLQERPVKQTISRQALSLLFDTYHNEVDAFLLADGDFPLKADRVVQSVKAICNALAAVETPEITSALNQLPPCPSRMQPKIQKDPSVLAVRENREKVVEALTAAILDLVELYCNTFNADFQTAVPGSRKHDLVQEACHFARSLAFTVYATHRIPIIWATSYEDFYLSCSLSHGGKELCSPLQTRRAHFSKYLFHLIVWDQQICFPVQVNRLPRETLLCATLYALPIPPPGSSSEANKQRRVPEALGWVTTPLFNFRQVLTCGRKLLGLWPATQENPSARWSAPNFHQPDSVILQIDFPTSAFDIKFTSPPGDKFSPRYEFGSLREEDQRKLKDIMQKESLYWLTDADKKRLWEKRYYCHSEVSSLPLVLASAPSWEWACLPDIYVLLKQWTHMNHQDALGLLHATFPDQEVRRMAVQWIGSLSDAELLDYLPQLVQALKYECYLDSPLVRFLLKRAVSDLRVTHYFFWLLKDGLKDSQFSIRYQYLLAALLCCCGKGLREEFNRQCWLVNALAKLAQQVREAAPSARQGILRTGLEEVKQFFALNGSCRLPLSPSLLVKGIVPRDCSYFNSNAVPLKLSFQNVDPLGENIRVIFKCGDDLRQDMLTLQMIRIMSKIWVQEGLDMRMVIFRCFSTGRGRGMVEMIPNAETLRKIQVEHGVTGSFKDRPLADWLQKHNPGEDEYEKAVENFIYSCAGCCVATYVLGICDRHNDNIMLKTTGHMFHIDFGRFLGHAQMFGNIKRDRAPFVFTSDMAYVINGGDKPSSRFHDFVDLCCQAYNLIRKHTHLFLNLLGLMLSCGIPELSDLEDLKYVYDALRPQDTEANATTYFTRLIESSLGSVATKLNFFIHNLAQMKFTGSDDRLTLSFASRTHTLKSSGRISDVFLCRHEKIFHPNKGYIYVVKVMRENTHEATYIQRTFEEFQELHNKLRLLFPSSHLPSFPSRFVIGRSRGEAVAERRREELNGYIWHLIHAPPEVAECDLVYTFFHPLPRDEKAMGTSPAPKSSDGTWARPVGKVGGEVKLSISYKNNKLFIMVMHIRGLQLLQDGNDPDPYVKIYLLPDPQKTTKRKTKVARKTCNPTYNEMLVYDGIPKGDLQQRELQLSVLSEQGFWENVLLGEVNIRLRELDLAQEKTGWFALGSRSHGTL
Outline: as §1

[26] = target: T26, RET (M918T) (Homo sapiens, UniProt P07949, M918T)
T26 construct: purchased DiscoveRx Corporation
Outline: as §1

[27] = target: T27, RPS6KA4(kin.Dom.2-C-termimal) (Homo sapiens, UniProt O75676)
T27 construct: kin.Dom.2; purchased DiscoveRx Corporation
T27 sequence (O75676 411-674 limits assumed): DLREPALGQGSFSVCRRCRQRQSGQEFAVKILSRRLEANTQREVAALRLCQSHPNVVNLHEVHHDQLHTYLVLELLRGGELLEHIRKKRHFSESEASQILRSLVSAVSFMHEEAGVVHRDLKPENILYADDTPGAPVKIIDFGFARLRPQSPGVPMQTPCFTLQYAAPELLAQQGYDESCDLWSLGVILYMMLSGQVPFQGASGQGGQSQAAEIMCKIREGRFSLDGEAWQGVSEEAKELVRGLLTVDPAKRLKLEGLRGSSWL
Outline: as §1

[28] = target: T28, RSK1(Kin.Dom.1-N-terminal) (Homo sapiens, UniProt Q15418)
T28 construct: Kin.Dom.1; purchased DiscoveRx Corporation
T28 sequence (Q15418 62-321 limits assumed): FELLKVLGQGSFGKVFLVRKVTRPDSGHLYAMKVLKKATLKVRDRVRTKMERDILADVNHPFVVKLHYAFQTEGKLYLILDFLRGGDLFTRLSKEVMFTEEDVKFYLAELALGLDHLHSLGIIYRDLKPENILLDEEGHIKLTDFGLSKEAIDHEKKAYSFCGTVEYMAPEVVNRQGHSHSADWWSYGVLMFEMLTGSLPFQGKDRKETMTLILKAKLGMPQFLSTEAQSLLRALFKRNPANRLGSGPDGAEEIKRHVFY
Outline: as §1

[29] = target: T29, SNARK (Homo sapiens, UniProt Q9H093)
T29 construct: purchased DiscoveRx Corporation (KinomeScan)
Outline: as §1

[30] = target: T30, SRPK1 (Homo sapiens, UniProt Q96SB4)
T30 construct: purchased DiscoveRx Corporation (KinomeScan)
Outline: as §1

[31] = target: T31, STK39 (Homo sapiens, UniProt Q9UEW8)
T31 construct: purchased DiscoveRx Corporation (KinomeScan)
Outline: as §1

[32] = target: T32, TAK1 (Homo sapiens, UniProt O43318)
T32 construct: purchased DiscoveRx Corporation (KinomeScan)
Outline: as §1

[33] = target: T33, TESK1 (Homo sapiens, UniProt Q15569)
T33 construct: purchased DiscoveRx Corporation (KinomeScan)
Outline: as §1

[34] = target: T34, TYRO3 (Homo sapiens, UniProt Q06418)
T34 construct: purchased DiscoveRx Corporation (KinomeScan service)
T34 sequence (Q06418 41-890): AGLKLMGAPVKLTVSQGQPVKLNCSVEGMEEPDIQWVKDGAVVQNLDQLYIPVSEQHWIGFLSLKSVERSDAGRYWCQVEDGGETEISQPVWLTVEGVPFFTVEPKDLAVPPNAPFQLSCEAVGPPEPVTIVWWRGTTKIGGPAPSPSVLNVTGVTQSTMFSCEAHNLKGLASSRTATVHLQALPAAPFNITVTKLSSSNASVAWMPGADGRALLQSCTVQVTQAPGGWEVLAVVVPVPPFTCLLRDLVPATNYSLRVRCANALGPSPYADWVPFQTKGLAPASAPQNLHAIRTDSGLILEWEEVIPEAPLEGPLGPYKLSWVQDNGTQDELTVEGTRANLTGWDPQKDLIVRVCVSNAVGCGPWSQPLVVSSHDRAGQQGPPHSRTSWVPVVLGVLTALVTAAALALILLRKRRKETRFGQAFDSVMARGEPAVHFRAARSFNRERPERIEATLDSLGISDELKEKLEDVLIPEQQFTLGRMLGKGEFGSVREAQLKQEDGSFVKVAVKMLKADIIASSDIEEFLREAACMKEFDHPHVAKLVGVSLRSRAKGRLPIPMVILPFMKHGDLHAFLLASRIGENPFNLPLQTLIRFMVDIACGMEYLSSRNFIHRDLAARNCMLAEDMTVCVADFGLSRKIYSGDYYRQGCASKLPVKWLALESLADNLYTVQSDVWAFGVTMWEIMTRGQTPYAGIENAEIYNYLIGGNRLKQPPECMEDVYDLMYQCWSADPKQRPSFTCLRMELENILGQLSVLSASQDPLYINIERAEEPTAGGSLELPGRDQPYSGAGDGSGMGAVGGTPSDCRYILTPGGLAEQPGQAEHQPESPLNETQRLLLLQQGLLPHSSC
Outline: as §1

**Q.** Which results are given for `CCOP(=O)(CN1CCC(COc2cc3nccc(Oc4ccc(NC(=O)C5(C(=O)Nc6ccc(F)cc6)CC5)cc4F)c3cc2OC)CC1)OCC` [Example 10, N1-[4-[[7-[[1-(diethoxyphosphorylmethyl)-4-piperidinyl]methoxyl]-6-methoxyl-4-quinolyl]oxyl]-3-fluorophenyl]-N1′-(4-fluorophenyl)cyclopropane-1,1-dicarboxamide]?
**A.** % Ctrl@1000 nM [1]: 63 % Ctrl; % Ctrl@1000 nM [2]: 28 % Ctrl; % Ctrl@1000 nM [3]: 100 % Ctrl; % Ctrl@1000 nM [4]: 100 % Ctrl; % Ctrl@1000 nM [5]: 100 % Ctrl; % Ctrl@1000 nM [6]: 78 % Ctrl; % Ctrl@1000 nM [7]: 100 % Ctrl; % Ctrl@1000 nM [8]: 100 % Ctrl; % Ctrl@1000 nM [9]: 100 % Ctrl; % Ctrl@1000 nM [10]: 81 % Ctrl; % Ctrl@1000 nM [11]: 59 % Ctrl; % Ctrl@1000 nM [12]: 100 % Ctrl; % Ctrl@1000 nM [13]: 100 % Ctrl; % Ctrl@1000 nM [14]: 100 % Ctrl; % Ctrl@1000 nM [15]: 100 % Ctrl; % Ctrl@1000 nM [16]: 1.4 % Ctrl; % Ctrl@1000 nM [17]: 92 % Ctrl; % Ctrl@1000 nM [18]: 100 % Ctrl; % Ctrl@1000 nM [19]: 100 % Ctrl; % Ctrl@1000 nM [20]: 100 % Ctrl; % Ctrl@1000 nM [21]: 100 % Ctrl; % Ctrl@1000 nM [22]: 4.4 % Ctrl; % Ctrl@1000 nM [23]: 45 % Ctrl; % Ctrl@1000 nM [24]: 100 % Ctrl; % Ctrl@1000 nM [25]: 100 % Ctrl; % Ctrl@1000 nM [26]: 0.05 % Ctrl; % Ctrl@1000 nM [27]: 100 % Ctrl; % Ctrl@1000 nM [28]: 59 % Ctrl; % Ctrl@1000 nM [29]: 100 % Ctrl; % Ctrl@1000 nM [30]: 70 % Ctrl; % Ctrl@1000 nM [31]: 100 % Ctrl; % Ctrl@1000 nM [32]: 75 % Ctrl; % Ctrl@1000 nM [33]: 39 % Ctrl; % Ctrl@1000 nM [34]: 41 % Ctrl
